Laboratory results as given in US20160251341A1, “SUBSTITUTED TRIAZOLE COMPOUNDS AS SERINE PROTEASE INHIBITORS” (Verseon Corporation, priority 2015, published 2016).
pIC50: −log10 of the molar value.

Target: T1, Human thrombin (Homo sapiens, UniProt P00734)
T1 construct: purchased Haematologic Technologies Inc
Experiment: Thrombin protease inhibition assay (chromogenic substrate S-2238)
Assay type: biochemical
Settings: 3 nM human thrombin, 125 μM S-2238, 10 min pre-incubation, RT
Protocol: The thrombin activity reported herein (e.g., Table A) was obtained as follows. Human thrombin was obtained from Haematologic Technologies Inc. The chromogenic substrate S-2238 was obtained from DiaPharma. Thrombin was assayed in buffer containing 0.05 M Tris (pH 7.4), 0.015 M NaCl and 0.01% PEG-8000. The final concentration of enzyme used was 3 nM thrombin. The final concentration of substrate used was 125 μM S-2238 for thrombin. All assays were performed in 96-well microtiter plates at room temperature (RT). The enzyme and inhibitor were pre-incubated for 10 minutes then substrate was added and read at 405 nm in a SpectraMax Plus Spectrophotometer (Molecular Devices). Inhibitor IC50 values were determined by adding test compound as ten point, three-fold serial dilutions in buffer solution, as known in the art. The plate was read at 10 minutes after substrate addition. The IC50 was calculated by plotting the percent (%) inhibition against compound concentration and fitting the data to a constrained four parameter sigmoidal curve, as known in the art.

**Q.** With `O=C(c1ccoc1)n1nc(C2CCOCC2)nc1NCc1ccc(Cl)s1` [Entry 51, N-[(5-chlorothiophen-2-yl)methyl]-1-(furan-3-carbonyl)-3-(oxan-4-yl)-1H-1,2,4-triazol-5-amine] as the molecule, how does the pIC50 read?
**A.** The pIC50 was ≥ 7.00.

**Q.** With `O=C(c1ccoc1)n1nc(C2CCCO2)nc1NCc1ccc(Cl)s1` (centres unmarked) [Entry 52, N-[(5-chlorothiophen-2-yl)methyl]-1-(furan-3-carbonyl)-3-(oxolan-2-yl)-1H-1,2,4-triazol-5-amine] as the molecule, how does the pIC50 read?
**A.** The pIC50 was ≥ 7.00.

**Q.** With `O=C(c1ccoc1)n1nc(C2CCOC2)nc1NCc1ccc(Cl)s1` (centres unmarked) [Entry 53, N-[(5-chlorothiophen-2-yl)methyl]-1-(furan-3-carbonyl)-3-(oxolan-3-yl)-1H-1,2,4-triazol-5-amine] as the molecule, how does the pIC50 read?
**A.** Its pIC50 is ≥ 7.00.

**Q.** With `COc1ccccc1C(=O)n1nc(C2CN(S(C)(=O)=O)C2)nc1NCc1ccc(Cl)s1` [Entry 54, N-[(5-chlorothiophen-2-yl)methyl]-3-(1-methanesulfonylazetidin-3-yl)-1-(2-methoxybenzoyl)-1H-1,2,4-triazol-5-amine] as the molecule, how does the pIC50 read?
**A.** Its pIC50 is ≥ 7.00.

**Q.** With `COc1ccccc1C(=O)n1nc(C2CCN(S(C)(=O)=O)CC2)nc1NCc1ccc(Cl)s1` [Entry 55, N-[(5-chlorothiophen-2-yl)methyl]-3-(1-methanesulfonylpiperidin-4-yl)-1-(2-methoxybenzoyl)-1H-1,2,4-triazol-5-amine] as the molecule, how does the pIC50 read?
**A.** The pIC50 was ≥ 7.00.

**Q.** With `COC1CCCCC1c1n[nH]c(NCc2ccc(Cl)s2)n1` (centres unmarked) [Entry 56, N-[(5-chlorothiophen-2-yl)methyl]-3-(2-methoxycyclohexyl)-1H-1,2,4-triazol-5-amine] as the molecule, how does the pIC50 read?
**A.** The pIC50 was 5.00 to 6.00.

**Q.** With `O=C(c1ccsc1)n1nc(C2CCOCC2)nc1NCc1ccc(Cl)s1` [Entry 57, N-[(5-chlorothiophen-2-yl)methyl]-3-(oxan-4-yl)-1-(thiophene-3-carbonyl)-1H-1,2,4-triazol-5-amine] as the molecule, how does the pIC50 read?
**A.** The pIC50 was ≥ 7.00.

**Q.** With `Clc1ccc(CNc2nc(C3CCOCC3)n[nH]2)s1` [Entry 58, N-[(5-chlorothiophen-2-yl)methyl]-3-(oxan-4-yl)-1H-1,2,4-triazol-5-amine] as the molecule, how does the pIC50 read?
**A.** Its pIC50 is ≤ 4.00.

**Q.** With `O=C(c1ccsc1)n1nc(C2CCCO2)nc1NCc1ccc(Cl)s1` (centres unmarked) [Entry 59, N-[(5-chlorothiophen-2-yl)methyl]-3-(oxolan-2-yl)-1-(thiophene-3-carbonyl)-1H-1,2,4-triazol-5-amine] as the molecule, how does the pIC50 read?
**A.** The pIC50 was ≥ 7.00.

**Q.** With `Clc1ccc(CNc2nc(C3CCCO3)n[nH]2)s1` (centres unmarked) [Entry 60, N-[(5-chlorothiophen-2-yl)methyl]-3-(oxolan-2-yl)-1H-1,2,4-triazol-5-amine] as the molecule, how does the pIC50 read?
**A.** Its pIC50 is ≤ 4.00.

**Q.** With `O=C(c1ccsc1)n1nc(C2CCOC2)nc1NCc1ccc(Cl)s1` (centres unmarked) [Entry 61, N-[(5-chlorothiophen-2-yl)methyl]-3-(oxolan-3-yl)-1-(thiophene-3-carbonyl)-1H-1,2,4-triazol-5-amine] as the molecule, how does the pIC50 read?
**A.** Its pIC50 is ≥ 7.00.

**Q.** With `Clc1ccc(CNc2nc(C3CCOC3)n[nH]2)s1` (centres unmarked) [Entry 62, N-[(5-chlorothiophen-2-yl)methyl]-3-(oxolan-3-yl)-1H-1,2,4-triazol-5-amine] as the molecule, how does the pIC50 read?
**A.** Its pIC50 is ≤ 4.00.

**Q.** With `COc1ccccc1C(=O)n1nc(C2CN(S(=O)(=O)C3CCCCC3)C2)nc1NCc1ccc(Cl)s1` [Entry 63, N-[(5-chlorothiophen-2-yl)methyl]-3-[1-(cyclohexanesulfonyl)azetidin-3-yl]-1-(2-methoxybenzoyl)-1H-1,2,4-triazol-5-amine] as the molecule, how does the pIC50 read?
**A.** The pIC50 was ≥ 7.00.

**Q.** With `COc1ccccc1C(=O)n1nc(C2CCN(S(=O)(=O)C3CCCCC3)CC2)nc1NCc1ccc(Cl)s1` [Entry 64, N-[(5-chlorothiophen-2-yl)methyl]-3-[1-(cyclohexanesulfonyl)piperidin-4-yl]-1-(2-methoxybenzoyl)-1H-1,2,4-triazol-5-amine] as the molecule, how does the pIC50 read?
**A.** The pIC50 was ≥ 7.00.

**Q.** With `COc1ccccc1C(=O)n1nc(C2CCOCC2)nc1NCc1ccccc1` [Entry 65, N-benzyl-1-(2-methoxybenzoyl)-3-(oxan-4-yl)-1H-1,2,4-triazol-5-amine] as the molecule, how does the pIC50 read?
**A.** Its pIC50 is 5.00 to 6.00.

**Q.** With `c1ccc(CNc2nc(C3CCOCC3)n[nH]2)cc1` [Entry 66, N-benzyl-3-(oxan-4-yl)-1H-1,2,4-triazol-5-amine] as the molecule, how does the pIC50 read?
**A.** The pIC50 was ≤ 4.00.

**Q.** With `CC(C)(C)OC(=O)N1CCCC1c1n[nH]c(N)n1` (centres unmarked) [Entry 67, tert-butyl 2-(5-amino-1H-1,2,4-triazol-3-yl)pyrrolidine-1-carboxylate] as the molecule, how does the pIC50 read?
**A.** The pIC50 was ≤ 4.00.

**Q.** With `COc1ccccc1C(=O)n1nc(C2CCCN2C(=O)OC(C)(C)C)nc1NCc1ccc(Cl)s1` (centres unmarked) [Entry 68, tert-butyl 2-(5-[(5-chlorothiophen-2-yl)methyl]amino-1-(2-methoxybenzoyl)-1H-1,2,4-triazol-3-yl)pyrrolidine-1-carboxylate] as the molecule, how does the pIC50 read?
**A.** The pIC50 was 6.00 to 7.00.

**Q.** With `CC(C)(C)OC(=O)N1CCCC1c1n[nH]c(NCc2ccc(Cl)s2)n1` (centres unmarked) [Entry 69, tert-butyl 2-(5-[(5-chlorothiophen-2-yl)methyl]amino-1H-1,2,4-triazol-3-yl)pyrrolidine-1-carboxylate] as the molecule, how does the pIC50 read?
**A.** Its pIC50 is ≤ 4.00.

**Q.** With `CC(C)(C)OC(=O)N1CC(c2n[nH]c(N)n2)C1` [Entry 70, tert-butyl 3-(5-amino-1H-1,2,4-triazol-3-yl)azetidine-1-carboxylate] as the molecule, how does the pIC50 read?
**A.** Its pIC50 is ≤ 4.00.

**Q.** With `COc1ccccc1C(=O)n1nc(C2CN(C(=O)OC(C)(C)C)C2)nc1NCc1ccc(Cl)s1` [Entry 71, tert-butyl 3-(5-[(5-chlorothiophen-2-yl)methyl]amino-1-(2-methoxybenzoyl)-1H-1,2,4-triazol-3-yl)azetidine-1-carboxylate] as the molecule, how does the pIC50 read?
**A.** Its pIC50 is ≥ 7.00.

**Q.** With `CC(C)(C)OC(=O)N1CC(c2n[nH]c(NCc3ccc(Cl)s3)n2)C1` [Entry 72, tert-butyl 3-(5-[(5-chlorothiophen-2-yl)methyl]amino-1H-1,2,4-triazol-3-yl)azetidine-1-carboxylate] as the molecule, how does the pIC50 read?
**A.** The pIC50 was ≤ 4.00.

**Q.** With `CC(C)(C)OC(=O)N1CCC(c2n[nH]c(N)n2)CC1` [Entry 73, tert-butyl 4-(5-amino-1H-1,2,4-triazol-3-yl)piperidine-1-carboxylate] as the molecule, how does the pIC50 read?
**A.** The pIC50 was ≤ 4.00.

**Q.** With `COc1ccccc1C(=O)n1nc(C2CCN(C(=O)OC(C)(C)C)CC2)nc1NCc1ccc(Cl)s1` [Entry 74, tert-butyl 4-(5-[(5-chlorothiophen-2-yl)methyl]amino-1-(2-methoxybenzoyl)-1H-1,2,4-triazol-3-yl)piperidine-1-carboxylate] as the molecule, how does the pIC50 read?
**A.** Its pIC50 is ≥ 7.00.

**Q.** With `CC(C)(C)OC(=O)N1CCC(c2n[nH]c(NCc3ccc(Cl)s3)n2)CC1` [Entry 75, tert-butyl 4-(5-[(5-chlorothiophen-2-yl)methyl]amino-1H-1,2,4-triazol-3-yl)piperidine-1-carboxylate] as the molecule, how does the pIC50 read?
**A.** The pIC50 was ≤ 4.00.

**Q.** With `COc1ccccc1C(=O)n1nc(C2CCN(C(=O)OC(C)(C)C)CC2)nc1NCc1ccccc1` [Entry 76, tert-butyl 4-[5-(benzylamino)-1-(2-methoxybenzoyl)-1H-1,2,4-triazol-3-yl]piperidine-1-carboxylate] as the molecule, how does the pIC50 read?
**A.** The pIC50 was ≥ 7.00.

System: malignant breast tumors
Experiment: not given
Settings: at 4 weeks, treated mice; cited from earlier work

**Q.** With `CCCCCCOC(=O)NC(=N)c1ccc(NCc2nc3cc(C(=O)N(CCC(=O)OCC)c4ccccn4)ccc3n2C)cc1` [dabigatran etexilate] as the molecule, how does the “reduction in tumor volume” value read?
**A.** The value was 50%.

**Q.** And the weight loss?
**A.** The weight loss was “no weight loss”.

Same assay, conditions: treated mice; cited from earlier work

**Q.** Which “reduced tumor cells in the blood and liver micrometastases” value does the source give for `CCCCCCOC(=O)NC(=N)c1ccc(NCc2nc3cc(C(=O)N(CCC(=O)OCC)c4ccccn4)ccc3n2C)cc1` [dabigatran etexilate] here?
**A.** Its value is 50-60%.
